One test has as its target T1, CDK6/CyclinD3 (Homo sapiens, UniProt Q00534).
T1 construct: purchased Carna 04-107
The test is described as follows: CDK6/CyclinD3 kinase inhibitory activity (Caliper mobility shift). Type of test: biochemical. The settings on record: enzyme 15 nM, ATP 800 μM, 28° C. 30 min; read-out: CDK6/Cyclin D3 IC50. As for the experimental part: CDK6/CyclinD3 kinase inhibitory activity (IC50): 5 μl of various dilutions of test compound in 1× kinase buffer (50 mM HEPES pH 7.5, 10 mM MgCl2, 2 mM DTT and 0.01% Brij-35) was mixed with 10 μL of CDK6/CyclinD3 (Carna, 04-107 #, final concentration 15 nM in 1× Kinase buffer) in 384 plates and incubated at room temperature for 10 min. To initiate each reaction, 10 μL of peptide solution containing fluorescently-labeled -peptide 8(5-FAM-IPTSPITTTYFFFKKK-COOH, GL, 112396 #, final concentration 3000 nM) and ATP (final concentration 800 μM for CDK6/CyclinD3 in 1× Kinase buffer was added to each of the wells containing test compound and CDK6/CyclinD3. The reaction is then allowed to proceed at 28° C. for 30 min and terminated by the addition of 25 μL stop buffer (100 mM HEPES pH 7.5, 50 mM EDTA, 0.2% Coating Reagent #3 (Perkin Elmer, 760050 #) and 0.015% Brij-35).
(§1) Following the kinase reaction, Caliper EZ reader II (Downstream voltages: −500V, Upstream voltages: −2250V, Base pressure −0.5 PSI, Screen pressure −1.2 PSI) was used to separate the phosphorylated (product) and the unphosphorylated (substrate) fluorescently-labeled peptide 8 based on their different mobility. Both substrate and product were measured and the ratio of these values were used to generate % conversion by Caliper EZ reader II. These conversion values were then transformed into % inhibition of kinase activity using the formula: % Inhibition=[(MA−X)/(MA−MI)]×100% where MA=conversion value of DMSO only controls, MI=conversion value of no enzyme controls and X=conversion value at any given compound dose. IC50 values were then calculated by plotting dose-response curves and then using the XLfit application in Excel software.

The next test concerns the target T2, CDK4/CyclinD1 (Homo sapiens, UniProt P11802).
T2 construct: purchased ProQinase 0142-0143-1
Nature of the test: CDK4/CyclinD1 kinase inhibitory activity (Caliper mobility shift). Type of test: biochemical. The settings on record: enzyme 20 nM, ATP 672 uM, 28° C. 30 min; read-out: CDK4/Cyclin D1 IC50. As for the experimental part: CDK4/CyclinD1 kinase inhibitory activity (IC50): 5 μl of various dilutions of test compound in 1× kinase buffer (20 mM HEPES, pH 7.5, 10 mM MgCl2, 2 mM DTT and 0.01% Triton X-100) was mixed with 10 μL of either CDK4/Cyclin D1 (ProQinase, 0142-0143-1 #, final concentration 20 nM in 1× Kinase buffer) or in 384 plates and incubated at room temperature for 10 min. To initiate each reaction, 10 μL of peptide solution containing fluorescently-labeled-peptide 8(5-FAM-IPTSPITTTYFFFKKK-COOH, GL, 112396 #, final concentration 3000 nM) and ATP (final concentration 672 uM for CDK4/CyclinD1) in 1×Kinase buffer was added to each of the wells containing test compound and CDK4/CyclinD1 mixture. The reaction is then allowed to proceed at 28° C. for 30 min and terminated by the addition of 25 μL stop buffer (100 mM HEPES pH 7.5, 50 mM EDTA, 0.2% Coating Reagent #3 (Perkin Elmer, 760050 #) and 0.015% Brij-35).
as §1

Eleven molecules from patent US20260242395A1, “AMINOHETEROARYL KINASE INHIBITORS” (ALLORION THERAPEUTICS INC, priority 2022, published 2026) can be followed below.

T2 sequence (P11802 whole entry): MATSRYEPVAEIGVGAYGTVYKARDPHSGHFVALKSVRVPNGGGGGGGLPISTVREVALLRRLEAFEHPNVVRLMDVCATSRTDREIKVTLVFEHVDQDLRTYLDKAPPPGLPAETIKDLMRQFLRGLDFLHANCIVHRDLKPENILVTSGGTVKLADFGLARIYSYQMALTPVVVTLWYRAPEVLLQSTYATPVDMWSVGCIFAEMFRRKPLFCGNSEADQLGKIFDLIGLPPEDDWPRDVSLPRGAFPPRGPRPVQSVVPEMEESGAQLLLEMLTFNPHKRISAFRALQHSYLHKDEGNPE
T2 sequence (P24385 whole entry partner): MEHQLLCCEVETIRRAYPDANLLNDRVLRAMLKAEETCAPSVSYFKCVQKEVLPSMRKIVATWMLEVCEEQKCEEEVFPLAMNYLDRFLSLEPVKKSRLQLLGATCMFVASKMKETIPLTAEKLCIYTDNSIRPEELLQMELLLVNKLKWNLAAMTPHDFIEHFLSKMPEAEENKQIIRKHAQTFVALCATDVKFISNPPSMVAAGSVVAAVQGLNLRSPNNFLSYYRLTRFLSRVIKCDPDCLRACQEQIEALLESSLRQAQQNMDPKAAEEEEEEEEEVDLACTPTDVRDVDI
T1 sequence (Q00534 whole entry): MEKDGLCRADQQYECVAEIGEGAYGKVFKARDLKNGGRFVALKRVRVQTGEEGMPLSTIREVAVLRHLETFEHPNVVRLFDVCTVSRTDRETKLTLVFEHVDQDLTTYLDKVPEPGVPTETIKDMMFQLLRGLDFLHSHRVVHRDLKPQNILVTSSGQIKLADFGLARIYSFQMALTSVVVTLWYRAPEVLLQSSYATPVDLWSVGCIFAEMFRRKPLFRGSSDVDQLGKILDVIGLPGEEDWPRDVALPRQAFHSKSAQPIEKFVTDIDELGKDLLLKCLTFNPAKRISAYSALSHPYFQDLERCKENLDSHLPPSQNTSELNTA
T1 sequence (P30281 whole entry partner): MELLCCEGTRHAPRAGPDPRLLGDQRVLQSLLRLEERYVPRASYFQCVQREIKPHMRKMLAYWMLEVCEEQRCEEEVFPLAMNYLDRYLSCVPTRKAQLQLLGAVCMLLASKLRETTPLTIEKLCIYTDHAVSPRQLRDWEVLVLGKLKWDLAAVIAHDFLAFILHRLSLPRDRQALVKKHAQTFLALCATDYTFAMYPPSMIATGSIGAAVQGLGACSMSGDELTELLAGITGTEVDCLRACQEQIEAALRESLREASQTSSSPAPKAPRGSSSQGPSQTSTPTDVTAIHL

As to `[2H]c1nc(N[C@@H]2CCOC[C@H]2O)nc(-c2cc(F)c3nc(C)c(C(C)O)c(C)c3c2)c1Cl` (single isomer, unassigned) [Example 85a], the IC50 was 10 to 100 nM at CDK6/CyclinD3 and less than 10 nM on CDK4/CyclinD1.
The corresponding values for `[2H]c1nc(N[C@@H]2CCOC[C@H]2O)nc(-c2cc(F)c3nc(C)c(C(C)O)c(C)c3c2)c1F` (single isomer, unassigned) [Example 84a] are 10 to 100 nM and less than 10 nM.
The like results for `[2H]c1nc(N[C@@H]2CCOC[C@H]2O)nc(-c2cc(F)c3nc(C)c4c(c3c2)CNC(C)(C)C4)c1Cl` [Example 103] were, in that order, 100 to 1000 nM and less than 10 nM.
The like results for `CNC(C)c1cnc2c(F)cc(-c3nc(N[C@@H]4CCOC[C@H]4O)ncc3Cl)cc2c1C` (single isomer, unassigned) [Example 48b] were, in that order, 100 to 1000 nM and 10 to 100 nM.
As for `Cc1n[nH]c2cnc3ccc(-c4nc(N[C@@H]5CCOC[C@H]5O)ncc4Cl)cc3c12` [Example 11, (3S,4R)-4-((5-chloro-4-(1-methyl-3H-pyrazolo[3,4-c]quinolin-8-yl)pyrimidin-2-yl)amino)tetrahydro-2H-pyran-3-ol], the values for the IC50 at CDK6/CyclinD3 and at CDK4/CyclinD1 were 100 to 1000 nM and 10 to 100 nM, respectively.
Turning to `CC1(C)NCc2c(cnc3c(F)cc(-c4nc(N[C@@H]5CCOC[C@H]5O)ncc4F)cc23)C1O` (single isomer, unassigned) [Example 106a], the IC50 is 100 to 1000 nM at CDK6/CyclinD3 and less than 10 nM on CDK4/CyclinD1.
For `Cc1nc2c(F)cc(-c3nc(N[C@@H]4CCOC[C@H]4O)ncc3Cl)cc2c2c1CC1(CC1)NC2` [Example 69], the IC50 was 100 to 1000 nM on CDK6/CyclinD3 and less than 10 nM at CDK4/CyclinD1.
The like results for `CN1Cc2c(cnc3c(F)cc(-c4nc(N[C@@H]5CCOC[C@H]5O)ncc4Cl)cc23)C(O)C1(C)C` (single isomer, unassigned) [Example 111a] were, in that order, 100 to 1000 nM and 10 to 100 nM.
With `Cc1cc(C(C)(C)O)nc2c(F)cc(-c3nc(N[C@@H]4CCOC[C@H]4O)ncc3F)cc12` [Example 96], the IC50 was not below 1000 nM at CDK6/CyclinD3 and 10 to 100 nM at CDK4/CyclinD1.
The corresponding values for `Cc1nc2c(F)cc(-c3ccnc(N[C@@H]4CCOC[C@H]4O)n3)cc2c(C)c1C(C)O` (single isomer, unassigned) [Example 82a] are 100 to 1000 nM and 10 to 100 nM.
The like results for `Cc1nc2c(F)cc(-c3ccnc(N[C@@H]4CCOC[C@H]4O)n3)cc2c2c1CC(C)(C)NC2` [Example 99] were, in that order, not below 1000 nM and 10 to 100 nM.
